# Tests used:
# ePL-tagged Aiolos = molecular target: T1, ePL-tagged Aiolos (Homo sapiens, UniProt Q96SW2+Q9UKT9); assay: ePL-tagged substrate degradation in DF15 multiple myeloma cells; type: cell-based
# T1 construct: expressed in transfected cells
# Experimental: (§1) DF15 multiple myeloma cells stably expressing ePL-tagged Aiolos, Ikaros, or GSPT1, and MDS-L cells stably expressing ePL-tagged CK1a were generated via lentiviral infection with pLOC-ePL-Aiolos (or Ikaros, GSPT1, or CK1a). […] Compounds were dispensed by an acoustic dispenser (ATS acoustic transfer system from EDC Biosystems) into a 384-well plate in a 10-point dose response curve using 3-fold dilutions starting at 10 μM and going down to […]. Then, 25 μL of media (RPMI-1640+10% heat inactivated FBS+25 mM Hepes+1 mM Na pyruvate+1× NEAA+1×Pen Strep Glutamine) containing 5000 of DF15 or MSD-L cells was dispensed per well. Assay plates were incubated at 37° C. with 5% CO2 for 4 hours except 20 hours for GSPT1. After incubation, 25 μL of the InCELL Hunter detection reagent working solution (DiscoverX, catalogue no. 96-0002, Fremont, Calif.) was added to each well and incubated at room temperature for 60 min protected from light. After 60 min, luminescence was read on an Envision or PHERAstar luminescence reader.
# All substrate degradation curves were processed and evaluated using ActivityBase (IDBS), a data analysis software package. Ymin is minimum percent protein remaining.
# [1] = tested on: IKZF1 ZNF2_3 Q1F tagged anti-ROR1 CAR; assay: CAR surface levels in primary T cells, flow cytometry; type: cell-based, human; details: dose titration
# Experimental: (§2) The ability to use compounds to titrate primary CAR T effector function by degrading IKZF1 ZNF2_3 Q1F tagged anti-ROR1 CAR (FIG. 13A) was evaluated. The CAR included similar transmembrane, costimulatory, and signaling domains as the CD19 CAR, but with an anti-ROR1 scFv. A lentiviral vector encoding ZNF2_3 Q1F tagged or untagged anti-ROR1 CAR was transduced into activated primary T cells. Transduced cells were expanded for 10 days in media supplemented with IL2, IL7, and IL15, then frozen. Prior to the experiment, cells were thawed and allowed to rest in media with a dose titration of Compound C or without drug. […] To determine the impacts of CAR degradation on CAR T activity, cells were then co-cultured with a Nuclight red labeled H-1975 ROR1 expressing target cell line at a 1:4 effector:target cell ratio. Co-cultures were placed in the Incucyte for 24 hours to monitor tumor killing via Nuclight red signal (FIG. 14A), and supernatants were collected to measure proinflammatory cytokine production by MSD (FIG. 14B-14D; IL-2, TNFα, and IFNγ).
# ePL-tagged CK1a = molecular target: T2, ePL-tagged CK1a (Homo sapiens, UniProt P48729+Q96SW2); assay: ePL-tagged substrate degradation in MDS-L cells; type: cell-based
# T2 construct: expressed in transfected cells
# T2 sequence (P48729 whole entry): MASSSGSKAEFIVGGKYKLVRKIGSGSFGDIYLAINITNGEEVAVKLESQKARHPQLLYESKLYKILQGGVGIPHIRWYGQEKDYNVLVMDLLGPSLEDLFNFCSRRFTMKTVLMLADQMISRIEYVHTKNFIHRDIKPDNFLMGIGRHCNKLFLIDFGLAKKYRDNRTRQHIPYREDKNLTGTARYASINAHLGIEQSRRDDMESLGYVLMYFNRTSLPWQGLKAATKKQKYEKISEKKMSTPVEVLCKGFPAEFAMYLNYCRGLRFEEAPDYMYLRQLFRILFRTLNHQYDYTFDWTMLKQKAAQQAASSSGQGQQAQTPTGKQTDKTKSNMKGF
# T2 sequence (Q96SW2 whole entry): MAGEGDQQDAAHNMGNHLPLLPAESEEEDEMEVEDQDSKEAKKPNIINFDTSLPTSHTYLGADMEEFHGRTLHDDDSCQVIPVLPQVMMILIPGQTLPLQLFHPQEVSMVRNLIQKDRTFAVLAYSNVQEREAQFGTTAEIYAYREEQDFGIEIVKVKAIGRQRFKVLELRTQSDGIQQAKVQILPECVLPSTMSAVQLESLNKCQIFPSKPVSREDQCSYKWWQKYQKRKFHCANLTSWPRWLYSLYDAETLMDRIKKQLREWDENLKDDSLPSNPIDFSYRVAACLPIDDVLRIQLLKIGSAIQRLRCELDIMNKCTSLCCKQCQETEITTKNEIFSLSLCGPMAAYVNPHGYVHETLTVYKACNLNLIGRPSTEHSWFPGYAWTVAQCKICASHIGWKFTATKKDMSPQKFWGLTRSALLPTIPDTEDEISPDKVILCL
# T2 sequence (Q16531 whole entry partner): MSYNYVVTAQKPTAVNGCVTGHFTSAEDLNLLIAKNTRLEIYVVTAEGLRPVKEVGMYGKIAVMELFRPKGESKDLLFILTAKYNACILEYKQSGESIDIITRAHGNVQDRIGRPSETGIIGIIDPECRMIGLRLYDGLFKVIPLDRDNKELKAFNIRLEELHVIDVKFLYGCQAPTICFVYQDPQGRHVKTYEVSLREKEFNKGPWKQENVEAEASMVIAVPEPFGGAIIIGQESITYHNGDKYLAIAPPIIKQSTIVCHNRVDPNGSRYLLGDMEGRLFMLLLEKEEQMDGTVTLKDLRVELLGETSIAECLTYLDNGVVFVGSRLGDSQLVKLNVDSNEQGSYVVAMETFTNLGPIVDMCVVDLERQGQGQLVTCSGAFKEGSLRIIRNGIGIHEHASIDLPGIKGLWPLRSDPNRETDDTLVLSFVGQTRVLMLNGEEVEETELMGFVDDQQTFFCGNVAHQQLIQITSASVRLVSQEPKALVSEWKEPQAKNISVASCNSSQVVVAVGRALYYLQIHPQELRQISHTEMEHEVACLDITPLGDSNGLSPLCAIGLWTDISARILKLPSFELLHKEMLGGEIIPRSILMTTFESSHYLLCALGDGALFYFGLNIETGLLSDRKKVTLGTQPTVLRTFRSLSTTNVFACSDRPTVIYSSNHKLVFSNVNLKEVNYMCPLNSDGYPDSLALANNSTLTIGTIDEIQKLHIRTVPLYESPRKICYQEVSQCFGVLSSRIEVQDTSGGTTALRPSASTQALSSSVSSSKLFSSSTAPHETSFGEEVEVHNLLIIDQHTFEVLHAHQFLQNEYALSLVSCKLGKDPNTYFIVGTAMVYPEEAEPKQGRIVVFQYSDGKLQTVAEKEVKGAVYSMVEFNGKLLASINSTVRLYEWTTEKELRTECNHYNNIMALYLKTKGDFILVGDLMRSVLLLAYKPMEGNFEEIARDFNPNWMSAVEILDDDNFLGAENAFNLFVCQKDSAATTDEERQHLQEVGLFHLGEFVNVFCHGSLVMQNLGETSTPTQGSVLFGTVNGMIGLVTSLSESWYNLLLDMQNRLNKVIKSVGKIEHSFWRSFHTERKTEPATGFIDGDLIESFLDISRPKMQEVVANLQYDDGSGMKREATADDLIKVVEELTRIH
# Experimental: as §1
# To determine the EC50 value of a compound for the degradation of a given substrate (concentration of compound that achieves half the maximum degradation observed), a four-parameter logistic model (sigmoidal dose—response model) (FIT=(A+{(B−A)/1+[(C/x)D]})) where C is the inflection point (EC50), D is the […], and A and B are the low and high limits of the fit, respectively) was used. All substrate degradation curves were processed and evaluated using ActivityBase (IDBS), a data analysis software package. Ymin is minimum percent protein remaining.
# [2] = tested on: H-1975 ROR1 expressing target cell line; assay: Primary CAR T effector function (tumor killing, cytokine production) in co-culture; type: cell-based; details: 1:4 effector:target, 24 hours, different concentrations
# Experimental: as §2
# T1 sequence (Q9UKT9 whole entry): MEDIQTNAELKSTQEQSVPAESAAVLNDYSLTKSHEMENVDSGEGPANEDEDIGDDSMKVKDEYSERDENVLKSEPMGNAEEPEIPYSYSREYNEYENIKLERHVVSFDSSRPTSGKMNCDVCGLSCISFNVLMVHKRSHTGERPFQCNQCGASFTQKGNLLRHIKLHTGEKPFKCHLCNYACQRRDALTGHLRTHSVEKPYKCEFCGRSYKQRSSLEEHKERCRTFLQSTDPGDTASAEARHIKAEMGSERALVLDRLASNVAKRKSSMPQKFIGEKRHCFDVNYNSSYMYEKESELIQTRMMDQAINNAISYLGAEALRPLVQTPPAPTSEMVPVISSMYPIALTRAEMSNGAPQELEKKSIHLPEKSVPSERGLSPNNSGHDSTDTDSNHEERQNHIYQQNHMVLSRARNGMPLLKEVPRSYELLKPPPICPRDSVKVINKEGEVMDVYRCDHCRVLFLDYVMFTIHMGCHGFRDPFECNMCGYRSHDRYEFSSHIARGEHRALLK
# T1 sequence (Q96SW2 whole entry): as the sequence (Q96SW2 whole entry) above
# T1 sequence (Q16531 whole entry partner): as the sequence (Q16531 whole entry partner) above
smiles,measurement,setting,value
"Cc1ncccc1N1CCN(Cc2ccc3c(c2)CN(C2CCC(=O)NC2=O)C3=O)CC1 (stereo not drawn) [Compound C, 3-(5-((4-(2-methylpyridin-3-yl)piperazin-1-yl)methyl)-1-oxoisoindolin-2-yl)piperidine-2,6-dione]",Ymin (%),ePL-tagged Aiolos,83%
same,DC50,"ePL-tagged Aiolos; Aiolos, DF15 cells, 4 hours, read-out: EC50 (the source's name)",> 10 µM
same,surface levels of ZNF2_3 Q1F-tagged CAR,[1],could be titrated
same,Ymin (%),ePL-tagged CK1a,98%
same,DC50,"ePL-tagged CK1a; CK1a, MDS-L cells, 4 hours, read-out: EC50 (the source's name)",> 10 µM
same,effector function of primary CAR T cells (killing and cytokine production),[2],could be titrated

# — patent US20230095912A1, “Composition and Methods for Selective Degradation of Engineered Proteins” (Celgene Corporation, priority 2021, published 2023)
